Measured values taken from ChEMBL document CHEMBL5352448, “Novel tryptanthrin derivatives with benzenesulfonamide substituents: Design, synthesis, and anti-inflammatory evaluation” (Eur J Med Chem, 2023).
Active and inactive are the calls of the source. No cut-off for these calls is given here.

Columns and labels:
Rattus norvegicus [1] = experiment: Antiarthritic activity against adjuvant arthritis-induced Sprague-Dawley rat model assessed as reduction in body weight loss at 10 to 30 mg/kg, IG pre-administered with FCA for 10 days followed by compound administration once daily for 14 days and measured every 4 days; format: functional, organism-based; settings: dose 10-30 mg/kg, time 14.0 day
RAW264.7 [2] = experiment: Antiinflammatory activity in mouse RAW264.7 cells assessed as suppression of LPS-induced iNOS expression preincubated with compound for 1 hrs followed by LPS-stimulation and measured after 24 hrs by Western blot analysis; format: functional, cell-based; settings: dose 1-5 µM
[3] = target: Mitogen-activated protein kinase 14 (Mus musculus) (UniProt P47811); experiment: Thermal stabilization of P38alpha in LPS-induced mouse RAW264.7 cells at 30 uM preincubated with compound for 1 hrs followed by LPS stimulation and measured after 24 hrs at 50 to 55 degreeC by cellular thermal shift assay; format: cell-based
Sequence of Mitogen-activated protein kinase 14 (Mus musculus) (P47811 whole entry): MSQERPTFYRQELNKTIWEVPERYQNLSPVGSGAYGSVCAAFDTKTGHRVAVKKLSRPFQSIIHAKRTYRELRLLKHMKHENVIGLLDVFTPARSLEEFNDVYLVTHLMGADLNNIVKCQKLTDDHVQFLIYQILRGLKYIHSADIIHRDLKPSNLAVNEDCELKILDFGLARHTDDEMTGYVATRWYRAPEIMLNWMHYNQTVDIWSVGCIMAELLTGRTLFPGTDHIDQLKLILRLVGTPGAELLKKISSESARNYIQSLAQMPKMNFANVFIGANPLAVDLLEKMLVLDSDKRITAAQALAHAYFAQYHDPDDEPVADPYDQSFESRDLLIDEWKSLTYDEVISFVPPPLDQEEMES

RAW264.7 [4] = experiment: Antiinflammatory activity in mouse RAW264.7 cells assessed as inhibition of LPS-induced NO production at 20 uM preincubated with compound for 1 hrs followed by LPS-stimulation and measured after 24 hrs by griess reagent based assay relative to control; format: functional
Rattus norvegicus [5] = experiment: Antiarthritic activity against adjuvant arthritis-induced Sprague-Dawley rat model assessed as alleviation of inflammatory cell infiltration at 10 to 30 mg/kg, IG pre-administered with FCA for 10 days followed by compound administration once daily for 14 days by H&E staining microscopic analysis; format: functional, organism-based; settings: dose 10-30 mg/kg, time 14.0 day
Rattus norvegicus [6] = experiment: Antiarthritic activity against adjuvant arthritis-induced Sprague-Dawley rat model assessed as decrease in paw swelling pre-administered with FCA for 10 days followed by intragastric administration of compound once daily for 14 days and measured every 4 days; format: functional, organism-based; settings: dose 10-30 mg/kg, route ig, time 14.0 day
Rattus norvegicus [7] = experiment: Antiarthritic activity against adjuvant arthritis-induced Sprague-Dawley rat model assessed as alleviation of synovial cell proliferation at 10 to 30 mg/kg, IG pre-administered with FCA for 10 days followed by compound administration once daily for 14 days by H&E staining microscopic analysis; format: functional, organism-based; settings: dose 10-30 mg/kg, time 14.0 day
[8] = target: T1, MAP kinase p38 (Mus musculus) (UniProt P47811+O08911+Q9WUI1+Q9Z1B7); experiment: Inhibition of LPS-induced p38 MAPK signaling activation in mouse RAW264.7 cells assessed as reduction of MK2 phosphorylation preincubated with compound for 1 hrs followed by LPS stimulation and measured after 24 hrs by Western blot analysis; format: cell-based; settings: dose 1-5 µM
[9] = target: T1, MAP kinase p38 (Mus musculus); experiment: Inhibition of LPS-induced p38 MAPK signaling activation in mouse RAW264.7 cells assessed as inhibition of p38 alpha phosphorylation preincubated with compound for 1 hrs followed by LPS stimulation and measured after 24 hrs by Western blot analysis; format: cell-based; settings: dose 1-5 µM
Rattus norvegicus [10] = experiment: Antiarthritic activity against adjuvant arthritis-induced Sprague-Dawley rat model assessed as decrease in IL-1beta level in serum pre-administered with FCA for 10 days followed by intragastric administration of compound once daily for 14 days by ELISA analysis; format: functional, organism-based; settings: dose 10-30 mg/kg, route ig, time 14.0 day
Rattus norvegicus [11] = experiment: Antiarthritic activity against adjuvant arthritis-induced Sprague-Dawley rat model assessed as improvement of arthritic index at 10 to 30 mg/kg, IG pre-administered with FCA for 10 days followed by compound administration once daily for 14 days and measured every 4 days; format: functional, organism-based; settings: dose 10-30 mg/kg, time 14.0 day
RAW264.7 [12] = experiment: Antiinflammatory activity in mouse RAW264.7 cells assessed as inhibition of LPS-induced NO production preincubated with compound for 1 hrs followed by LPS-stimulation and measured after 24 hrs by griess reagent based assay; format: functional, cell-based
RAW264.7 [13] = experiment: Antiinflammatory activity in mouse RAW264.7 cells assessed as inhibition of LPS-induced TNF-alpha production preincubated with compound for 1 hrs followed by LPS-stimulation and measured after 24 hrs by ELISA analysis; format: functional, cell-based
RAW264.7 [14] = experiment: Antiinflammatory activity in mouse RAW264.7 cells assessed as suppression of LPS-induced COX-2 expression preincubated with compound for 1 hrs followed by LPS-stimulation and measured after 24 hrs by Western blot analysis; format: functional, cell-based; settings: dose 1-5 µM
Rattus norvegicus [15] = experiment: Antiarthritic activity against adjuvant arthritis-induced Sprague-Dawley rat model assessed as decrease in TNF-alpha level in serum pre-administered with FCA for 10 days followed by intragastric administration of compound once daily for 14 days by ELISA analysis; format: functional, organism-based; settings: dose 10-30 mg/kg, route ig, time 14.0 day
RAW264.7 [16] = experiment: Antiinflammatory activity in mouse RAW264.7 cells assessed as inhibition of LPS-induced IL-1beta production preincubated with compound for 1 hrs followed by LPS-stimulation and measured after 24 hrs by ELISA analysis; format: functional, cell-based
RAW264.7 [17] = experiment: Cytotoxicity against mouse RAW264.7 cells assessed as reduction in cell viability at 40 uM incubated for 24 hrs by MTT assay; format: toxicity, cell-based; settings: raw264.7, 24 h

Row | SMILES | inhibition at 20 µM (RAW264.7 [4]) [%] | Activity (RAW264.7 [17]) | further results
1 | COc1ccc(S(=O)(=O)Nc2ccc3nc4n(c(=O)c3c2)-c2ccccc2C4=O)cc1 | 94 | Non-Toxic | Activity (Rattus norvegicus [1]): Active; Activity (RAW264.7 [2]): Dose-Dependent Effect; Activity [3]: Active; Activity (Rattus norvegicus [5]): Active; Activity (Rattus norvegicus [6]): Dose-Dependent Effect; Activity (Rattus norvegicus [7]): Active; inhibition [8]: Dose-Dependent Effect; inhibition [9]: Dose-Dependent Effect; Activity (Rattus norvegicus [10]): Dose-Dependent Effect; Activity (Rattus norvegicus [11]): Active; IC50 (RAW264.7 [12]): 1.25 µM; Activity (RAW264.7 [13]): Dose-Dependent Effect; IC50 (RAW264.7 [13]): 11.5 µM; Activity (RAW264.7 [14]): Dose-Dependent Effect; Activity (Rattus norvegicus [15]): Dose-Dependent Effect; Activity (RAW264.7 [16]): Dose-Dependent Effect; IC50 (RAW264.7 [16]): 8.48 µM
2 | COc1ccc(S(=O)(=O)Nc2ccc3nc4n(c(=O)c3c2)-c2ccccc2C4=O)c(OC)c1 | 78 | Non-Toxic | 
3 | O=C1c2ccccc2-n2c1nc1ccc(NS(=O)(=O)c3ccc(F)cc3)cc1c2=O | 85.4 | Non-Toxic | IC50 (RAW264.7 [12]): 2.73 µM
4 | O=C1c2ccccc2-n2c1nc1ccc(NS(=O)(=O)c3c(Cl)cccc3Cl)cc1c2=O | 64.4 | Non-Toxic | 
5 | COc1ccc2c(c1)c(CC(=O)O)c(C)n2C(=O)c1ccc(Cl)cc1 [INDOMETHACIN] | 32.1 | Non-Toxic | 
6 | O=C1c2cc(NS(=O)(=O)c3ccc(OC(F)(F)F)cc3)ccc2-n2c1nc1ccccc1c2=O | 42.9 | Non-Toxic | 
7 | O=C1c2ccccc2-n2c1nc1ccc(NS(=O)(=O)c3cccc(F)c3)cc1c2=O | 64.4 | Non-Toxic | 
8 | O=C1c2cc(NS(=O)(=O)c3cccc(F)c3)ccc2-n2c1nc1ccccc1c2=O | 37.5 | Non-Toxic | 
9 | Nc1ccc2c(c1)C(=O)c1nc3ccccc3c(=O)n1-2 | 26.7 |  | 
10 | Nc1ccc2nc3n(c(=O)c2c1)-c1ccccc1C3=O | 38.1 |  | 
11 | COc1ccc(S(=O)(=O)Nc2ccc3c(c2)C(=O)c2nc4ccccc4c(=O)n2-3)cc1 | 56.4 | Non-Toxic | 
12 | CC(C)c1cc(C(C)C)c(S(=O)(=O)Nc2ccc3nc4n(c(=O)c3c2)-c2ccccc2C4=O)c(C(C)C)c1 | 81.2 | Non-Toxic | IC50 (RAW264.7 [12]): 4.21 µM
13 | O=C1c2cc(NS(=O)(=O)c3ccccc3C(F)(F)F)ccc2-n2c1nc1ccccc1c2=O | 54.3 | Non-Toxic | 
14 | O=C1c2ccccc2-n2c1nc1ccc(NS(=O)(=O)c3ccc(OC(F)(F)F)cc3)cc1c2=O | 63.6 | Non-Toxic | 
15 | O=C1c2cc(NS(=O)(=O)c3ccccc3)ccc2-n2c1nc1ccccc1c2=O | 28.1 | Non-Toxic | 
16 | CC(=O)Nc1ccc(S(=O)(=O)Nc2ccc3nc4n(c(=O)c3c2)-c2ccccc2C4=O)cc1 | 47.2 | Non-Toxic | 
17 | O=C1c2ccccc2-n2c1nc1ccc(NS(=O)(=O)c3ccc(Br)cc3)cc1c2=O | 34.2 | Non-Toxic | 
18 | CC(C)c1cc(C(C)C)c(S(=O)(=O)Nc2ccc3c(c2)C(=O)c2nc4ccccc4c(=O)n2-3)c(C(C)C)c1 | 31.6 | Non-Toxic | 

Row | SMILES | inhibition at 20 µM (RAW264.7 [4]) [%] | Activity (RAW264.7 [17]) | further results
19 | O=C1c2ccccc2-n2c1nc1ccc(NS(=O)(=O)c3ccccc3C(F)(F)F)cc1c2=O | 74.9 | Non-Toxic | 
20 | O=C1c2cc(NS(=O)(=O)c3c(Cl)cccc3Cl)ccc2-n2c1nc1ccccc1c2=O | 38.4 | Non-Toxic | 
21 | Cc1ccc(S(=O)(=O)Nc2ccc3nc4n(c(=O)c3c2)-c2ccccc2C4=O)cc1 | 90.2 | Non-Toxic | IC50 (RAW264.7 [12]): 2.89 µM
22 | O=C1c2ccccc2-n2c1nc1ccc(NS(=O)(=O)c3ccccc3F)cc1c2=O | 88.2 | Non-Toxic | IC50 (RAW264.7 [12]): 2.72 µM
23 | O=C1c2cc(NS(=O)(=O)c3ccccc3OC(F)(F)F)ccc2-n2c1nc1ccccc1c2=O | 46.2 | Non-Toxic | 
24 | O=C1c2ccccc2-n2c1nc1ccc(NS(=O)(=O)c3ccccc3)cc1c2=O | 14.5 | Non-Toxic | 
25 | O=C1c2cc(NS(=O)(=O)c3ccccc3F)ccc2-n2c1nc1ccccc1c2=O | 49.1 | Non-Toxic | 
26 | COc1ccc(S(=O)(=O)Nc2ccc3c(c2)C(=O)c2nc4ccccc4c(=O)n2-3)cc1OC | 57.2 | Non-Toxic | 
27 | COc1ccc(S(=O)(=O)Nc2ccc3nc4n(c(=O)c3c2)-c2ccccc2C4=O)cc1OC | 73 | Non-Toxic | 
28 | O=C1c2ccccc2-n2c1nc1ccccc1c2=O [TRYPTANTHRIN] | 31.3 |  | 
29 | O=C1c2ccccc2-n2c1nc1ccc(NS(=O)(=O)c3ccccc3OC(F)(F)F)cc1c2=O | 82.1 | Non-Toxic | IC50 (RAW264.7 [12]): 3.88 µM
30 | Cc1ccc(S(=O)(=O)Nc2ccc3c(c2)C(=O)c2nc4ccccc4c(=O)n2-3)cc1 | 55.8 | Non-Toxic | 
31 | CC(C)(C)c1ccc(S(=O)(=O)Nc2ccc3nc4n(c(=O)c3c2)-c2ccccc2C4=O)cc1 | 58.2 | Non-Toxic | 
32 | O=C1c2cc(NS(=O)(=O)c3ccc(Br)cc3)ccc2-n2c1nc1ccccc1c2=O | 18.8 | Non-Toxic | 
33 | COc1ccc(S(=O)(=O)Nc2ccc3c(c2)C(=O)c2nc4ccccc4c(=O)n2-3)c(OC)c1 | 55.1 | Non-Toxic | 
34 | CC(=O)Nc1ccc(S(=O)(=O)Nc2ccc3c(c2)C(=O)c2nc4ccccc4c(=O)n2-3)cc1 | 17.3 | Non-Toxic | 
35 | O=C1c2cc(NS(=O)(=O)c3ccc(F)cc3)ccc2-n2c1nc1ccccc1c2=O | 42.5 | Non-Toxic | 
36 | CC(C)(C)c1ccc(S(=O)(=O)Nc2ccc3c(c2)C(=O)c2nc4ccccc4c(=O)n2-3)cc1 | 20.6 | Non-Toxic | 
